Source: patent publication US20150080380A1, “Therapeutic Uses” (GLAXOSMITHKLINE INTELLECTUAL PROPERTY DEVELOPMENT LIMITED, priority 2012, published 2015)

Key:
[1] = system: remyelination in cuprizone-induced demyelination; test: Mouse cuprizone-induced demyelination model (Black-gold II staining); type: in vivo, C57BL/6 mice; details: forebrain and hindbrain; for myelin staining intensity of corpus callosum (percentage of mean density of naïve control): vehicle 15.75%; for demyelination area, corpus callosum: vehicle 54.81%
Description: The ability of the compound of Example 1 to enhance in vivo remyelination was determined with the mouse cuprizone-induced demyelination model.
The cuprizone model was conducted with the protocol as follows: the C57BL/6 mice at age of 8 weeks were fed with powder mouse food mixed freshly with 0.2% cuprizone (w/w) for 5 weeks to induce demyelination, then animals were allowed to recover (removal of cuprizone from the diet) and administrated with Example compound 1, at 0.3 mg/kg, 1 mg/kg, 3 mg/kg and 10 mg/kg body weight orally, b.i.d. for an additional 9 days prior to sacrifice. The brain samples were collected for assessment of myelination. The compound of Example 1 was formulated as a suspension using 1% aqueous methylcellulose as the vehicle.
Mice were deeply anesthetized and quickly perfused with 0.9% saline via the left cardiac ventricle to drain out blood. Whole brains were taken out and put into 15 ml tube with 4% paraformaldehyde (PFA) for post-fixation overnight, then soaked in 30% sucrose for 24-48 h to dehydrate. For frozen embedding, brains were immediately snap frozen in isopentane mixed with dry ice and then embedded in optimal cutting temperature solution (OCT). Whole brains were sectioned at coronal position from Bregma −2.46 mm to 1.18 mm according to mouse atlas by Paxinos and Franklin (The Mouse Brain in Stereotaxic Coordinates—3rd Edition) with cryostat (MICROM HM525) at a thickness of 30 μm. All sections were put into 96-well plate filled with anti-freezing solution [300 g sucrose dissolved in 500 ml 0.1 M PB solution (combine 11.505 g Na2HPO4 and 2.275 g NaH2PO4, dilute to 1 L with distilled water, adjust pH to 7.4) plus 300 ml Ethylene glycol and dilute to 1 L with distilled water]. For Black-gold II staining, 2 sections from forebrain around the bregma 0.86 mm and 2 sections from hindbrain around the bregma −1.58 mm for each mouse respectively were chosen according to mouse atlas by Paxinos and Franklin. Black-gold II staining for detection of myelination was performed according to a protocol adapted from the manufacturer (AG105, Millipore). Briefly, 2 free-floating sections from forebrain and 2 sections from hindbrain were rehydrated 2× in MilliQ water for 2 minutes each time and then stained in a 24-well plate with 0.3% Black-gold II solution at 60° C. for 20 minutes. The sections were monitored to determine the extent of staining. When the finest myelinated fibers were stained dark red to black, the staining process was stopped. The sections were then rinsed 2× in MilliQ water for 2 minutes each time. Then the sections were treated with Sodium thiosulfate solution (1%) for 6 minutes at 60° C. After rinsing in PBST (0.05% Triton X100 in PBS), sections were mounted on slides (Leica Microsystems Plus Slides) and further air-dried on 37° C. heating platform for 2-4 hours. The dehydrated slides were coverslipped with robotic coverslipper (CV5030, Leica). Stained slides were scanned by Scanscope (Aperio Technologies Inc.). Digital images of central corpus callosum or cortex close to cingulum were captured using ImageScope (Aperio Technologies Inc.) at the magnification of 20×.
Image-Pro 6.3 software (Media Cybernetics, Bethesda, Md. 20814 USA) was used for subsequent quantitative evaluation. Threshold was set to Black-gold II staining in each gated corpus callosum and held constant for images obtained at equal objectives and light intensities on slides that were processed. Two parameters were used here: area and IOD (Integrated Optical Density). For measurement of demyelination area, all digital images were set under the same colour range after converted to a greyscale value of 8. Demyelination area indicated by void of Black-gold staining and total area of central corpus callosum at 20× magnification were measured separately on each image. Mean demyelination area was calculated as: (demyelination area/total area of central corpus callosum)×100. […]

[2] = target: T1, human recombinant H3 receptor (Homo sapiens, UniProt Q9Y5N1); test: GTPγS binding assay (basal binding, HEK-293-GαO membranes); type: biochemical; details: 100 nM-0.001 nM, absence of H3R agonist, 3 independent experiments; read-out: pEC50, inhibition of basal GTPγS binding (converted)
T1 construct: host or cells: HEK-293-GαO cells transduced with BacMam virus; membranes prepared
T1 sequence (Q9Y5N1 whole entry): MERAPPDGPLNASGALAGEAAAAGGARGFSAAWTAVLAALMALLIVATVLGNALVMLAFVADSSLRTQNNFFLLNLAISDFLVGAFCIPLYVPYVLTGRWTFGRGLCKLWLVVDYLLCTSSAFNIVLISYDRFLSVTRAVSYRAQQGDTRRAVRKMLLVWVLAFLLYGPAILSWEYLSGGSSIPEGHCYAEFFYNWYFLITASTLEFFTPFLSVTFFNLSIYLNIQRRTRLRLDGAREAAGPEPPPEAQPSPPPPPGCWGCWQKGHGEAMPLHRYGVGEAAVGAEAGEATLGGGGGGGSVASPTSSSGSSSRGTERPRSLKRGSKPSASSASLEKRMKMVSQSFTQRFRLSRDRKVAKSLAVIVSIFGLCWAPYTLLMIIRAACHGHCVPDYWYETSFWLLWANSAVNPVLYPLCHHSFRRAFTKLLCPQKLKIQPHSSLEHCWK
Description: The effect of Example compound 1 on basal GTPγS binding to the H3R receptor was determined in the GTPγS binding assay.
Human embryonic kidney 293 cells stably expressing G protein GαO (HEK-293-GO) were maintained in minimum essential medium (MEM) supplemented with Earle's salts, 2 mM L-glutamine, […] geneticin and 10% foetal bovine serum at 37-8° C., 5% CO2 in a humidified environment. Exponentially growing cells were infected with BacMam virus encoding the human recombinant H3 receptor (Biocat: Virus 96801) as follows. Cells were detached from flasks in PBS and collected by centrifugation at 200×g for 5 min at room temperature. […]
Cell membranes were diluted to ˜1 mg/ml in assay buffer (20 mM HEPES, 100 mM NaCl, 10 mM MgCl2, pH 7.4) and incubated with wheat germ agglutinin scintillation proximity assay (SPA) beads (Amersham Biosciences) for 45 min, after which GDP ([…]) was added. […] Non-specific binding was determined by the inclusion of 0.6 mM GTPγS. […] Filters were washed twice with 4 ml ice-cold water and bound […] on the filters was measured by scintillation counting on a Wallac 1450 Microbeta Trilux counter.
The data was analyzed and presented as fold change of the number of the vehicle control well (DMSO). […]

EC50 [2]: 112 pM
Compound: O=C1CCCN1c1ccc(Oc2ccc3c(c2)CCN(C2CCC2)CC3)nc1 [Example compound 1, 1-{6-[(3-cyclobutyl-2,3,4,5-tetrahydro-1H-3-benzazepin-7-yl)oxy]-3-pyridinyl}-2-pyrrolidinone]
myelin staining intensity of corpus callosum (percentage of mean density of naïve control) ([1]; 0.3 mg/kg orally b.i.d. 9 days): 18.61%±1.01%
demyelination area, corpus callosum ([1]; 0.3 mg/kg orally b.i.d. 9 days): 46.82%±3.54%
myelin staining intensity of corpus callosum (percentage of mean density of naïve control) ([1]; 1 mg/kg orally b.i.d. 9 days): 22.00%±3.41%
demyelination area, corpus callosum ([1]; 1 mg/kg orally b.i.d. 9 days): 38.45%±7.55%
myelin staining intensity of corpus callosum (percentage of mean density of naïve control) ([1]; 3 mg/kg orally b.i.d. 9 days): 28.32%±7.76%
demyelination area, corpus callosum ([1]; 3 mg/kg orally b.i.d. 9 days): 41.22%±11.14%
myelin staining intensity of corpus callosum (percentage of mean density of naïve control) ([1]; 10 mg/kg orally b.i.d. 9 days, P<0.05): 26.36%±3.10%
demyelination area, corpus callosum ([1]; 10 mg/kg orally b.i.d. 9 days, P<0.01): 27.62%±5.20%
